Consider 16 compounds from patent publication US8236801B2, “2-aza-bicyclo[2.2.1]heptane derivatives” (Actelion Pharmaceuticals Ltd., priority 2008, dated 2012).

pIC50: −log10 of the molar value. Where two headings read alike, the source gives them in different places.

One assay concerns the target T1, human orexin-1 receptor (Homo sapiens, UniProt O43613).
T1 construct: expressed in transfected cells; host or cells: Chinese hamster ovary (CHO) cells, G418 selection
T1 sequence (O43613 1-425): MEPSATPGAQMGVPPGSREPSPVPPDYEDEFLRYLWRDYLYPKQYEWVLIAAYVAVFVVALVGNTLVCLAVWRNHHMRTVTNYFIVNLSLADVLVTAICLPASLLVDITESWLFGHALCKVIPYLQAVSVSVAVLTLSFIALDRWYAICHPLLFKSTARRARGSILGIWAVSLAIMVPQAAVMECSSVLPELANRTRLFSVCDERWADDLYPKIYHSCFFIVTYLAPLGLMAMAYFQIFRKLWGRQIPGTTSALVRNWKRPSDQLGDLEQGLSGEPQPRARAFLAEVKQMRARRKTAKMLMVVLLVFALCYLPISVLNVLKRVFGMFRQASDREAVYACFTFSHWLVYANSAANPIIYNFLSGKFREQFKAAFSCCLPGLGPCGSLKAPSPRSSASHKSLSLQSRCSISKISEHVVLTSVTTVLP
The assay can be described thus: FLIPR calcium assay, antagonism of orexin-A in CHO cells expressing the human orexin-1 receptor. It counts as cell-based. The following applies: read-out: OX1 IC50. As for the experimental part: (§1) Chinese hamster ovary (CHO) cells expressing the human orexin-1 receptor and the human orexin-2 receptor, respectively, are grown in culture medium (Ham F-12 with L-Glutamine) containing 300 μg/ml G418, 100 U/ml penicillin, 100 μg/ml streptomycin and 10% heat inactivated fetal calf serum (FCS). The cells are seeded at 20′000 cells/well into 384-well black clear bottom sterile plates (Greiner). The seeded plates are incubated overnight at 37° C. in 5% CO2. Human orexin-A as an agonist is prepared as 1 mM stock solution in MeOH:water (1:1), diluted in HBSS containing 0.1% bovine serum albumin (BSA), NaHCO3: 0.375 g/l and 20 mM HEPES for use in the assay at a final concentration of 3 nM. Antagonists are prepared as 10 mM stock solution in DMSO, then diluted in 384-well plates, first in DMSO, then in HBSS containing 0.1% bovine serum albumin (BSA), NaHCO3: 0.375 g/l and 20 mM HEPES. On the day of the assay, 50 μl of staining buffer (HBSS containing 1% FCS, 20 mM HEPES, NaHCO3: 0.375 g/l, 5 mM probenecid (Sigma) and 3 μM of the fluorescent calcium indicator fluo-4 AM (1 mM stock solution in DMSO, containing 10% pluronic) is added to each well. The 384-well cell-plates are incubated for 50 min at 37° C. in 5% CO2 followed by equilibration at rt for 30-120 min before measurement. Within the Fluorescent Imaging Plate Reader (FLIPR2 or FLIPR Tetra, Molecular Devices), antagonists are added to the plate in a volume of 10 μl/well, incubated for 10 min and finally 10 μl/well of agonist is added. Fluorescence is measured for each well at 1 second intervals, and the height of each fluorescence peak is compared to the height of the fluorescence peak induced by 3 nM orexin-A with vehicle in place of antagonist. For each antagonist, the IC50 value (the concentration of compound needed to inhibit 50% of the agonistic response) is determined. Optimized conditions may be achieved by adjustment of pipetting speed and cell splitting regime. The calculated IC50 values of the compounds may fluctuate depending on the daily cellular assay performance. Fluctuations of this kind are known to those skilled in the art.

A further assay deals with T2, human orexin-2 receptor (Homo sapiens, UniProt O43614).
T2 construct: expressed in transfected cells; host or cells: Chinese hamster ovary (CHO) cells, G418 selection
T2 sequence (O43614 1-444): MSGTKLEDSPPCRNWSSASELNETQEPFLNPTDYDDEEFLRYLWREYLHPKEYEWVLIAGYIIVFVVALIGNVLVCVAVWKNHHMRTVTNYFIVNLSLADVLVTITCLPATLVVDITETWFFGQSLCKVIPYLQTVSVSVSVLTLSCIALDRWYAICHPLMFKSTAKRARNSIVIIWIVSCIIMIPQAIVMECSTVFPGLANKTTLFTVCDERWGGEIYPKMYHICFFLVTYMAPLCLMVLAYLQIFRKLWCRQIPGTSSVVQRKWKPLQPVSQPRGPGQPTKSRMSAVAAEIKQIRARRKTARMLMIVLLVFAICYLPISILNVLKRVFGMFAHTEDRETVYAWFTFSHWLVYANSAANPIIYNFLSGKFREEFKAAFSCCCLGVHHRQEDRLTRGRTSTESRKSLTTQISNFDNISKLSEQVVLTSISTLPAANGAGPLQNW
Nature of the assay: FLIPR calcium assay, antagonism of orexin-A in CHO cells expressing the human orexin-2 receptor. The class given is cell-based. The note with it: read-out: OX2 IC50. On the procedure: as §1

Where [1] appears, read: measured with FLIPR Tetra (marked *), 3 nM orexin-A, CHO cells.
Where [2] appears, read: measured with FLIPR Tetra (marked *), geometric mean from n = 2 values.
Where [3] appears, read: measured with FLIPR 2, 3 nM orexin-A, CHO cells.

The pIC50 is the negative decadic logarithm of the IC50, by convention in mol/L. As for `O=C(NC[C@@H]1[C@H]2CC[C@H](C2)N1C(=O)c1nccnc1-c1ccc2cc[nH]c2c1)c1cccc2ncsc12` [Example 109, Benzothiazole-7-carboxylic acid {(1R,3S,4S)-2-[3-(1H-indol-6-yl)-pyrazine-2-carbonyl]-2-aza-bicyclo[2.2.1]hept-3-ylmethyl}-amide], the pIC50 at human orexin-1 receptor (setting [1]) was 6.15; at human orexin-2 receptor (setting [1]), 7.72.
`O=C(NC[C@@H]1[C@H]2CC[C@H](C2)N1C(=O)c1sccc1-c1ccc2c(c1)OCO2)c1cccc2ncsc12` [Example 94, Benzothiazole-7-carboxylic acid [(1R,3S,4S)-2-(3-benzo[1,3]dioxol-5-yl-thiophene-2-carbonyl)-2-aza-bicyclo[2.2.1]hept-3-ylmethyl]-amide]: the pIC50 on human orexin-1 receptor (setting [1]) is 5.90; at human orexin-2 receptor (setting [1]), 7.09.
On the same counts, the results for `COc1nc(C(=O)N2[C@@H]3CC[C@@H](C3)[C@H]2CNC(=O)c2cccc3ncsc23)c(-c2cccc(Cl)c2)s1` [Example 80, Benzothiazole-7-carboxylic acid {(R,S,S)-2-[5-(3-chloro-phenyl)-2-methoxy-thiazole-4-carbonyl]-2-aza-bicyclo[2.2.1]hept-3-ylmethyl}-amide] are 7.10 and 7.82.
`COc1cccc(-c2sc(N(C)C)nc2C(=O)N2[C@@H]3CC[C@@H](C3)[C@H]2CNC(=O)c2cccc3ncsc23)c1` [Example 97, Benzothiazole-7-carboxylic acid {(1R,3S,45)-2-[2-dimethylamino-5-(3-methoxy-phenyl)-thiazole-4-carbonyl]-2-aza-bicyclo[2.2.1]hept-3-ylmethyl}-amide]: the pIC50 on human orexin-1 receptor (setting [2]) was 7.92; on human orexin-2 receptor (setting [2]), 7.85.
`Cc1ncc(C(=O)N2[C@@H]3CC[C@@H](C3)[C@H]2CNC(=O)c2cccc3occc23)c(-c2ccccc2)n1` [Example 11, Benzofuran-4-carboxylic acid [(1R,3S,4S)-2-(2-methyl-4-phenyl-pyrimidine-5-carbonyl)-2-aza-bicyclo[2.2.1]hept-3-ylmethyl]-amide]: the negative logarithm of the IC50 (pIC50) is 7.12 at human orexin-1 receptor (setting [3]) and 5.67 on human orexin-2 receptor (setting [3]).
As to `Cc1nc(C(=O)N2[C@@H]3CC[C@@H](C3)[C@H]2CNc2ncc(Br)cn2)c(-c2ccccc2)s1` [Example 46, {(1R,3S,4S)-3-[(5-Bromo-pyrimidin-2-ylamino)-methyl]-2-aza-bicyclo[2.2.1]hept-2-yl}-(2-methyl-5-phenyl-thiazol-4-yl)-methanone], the pIC50 was 6.31 at human orexin-1 receptor (setting [1]) and 6.44 at human orexin-2 receptor (setting [1]).
`Cc1nc2sccn2c1C(=O)NC[C@@H]1[C@H]2CC[C@H](C2)N1C(=O)c1nc(C2CC2)sc1-c1ccccc1` [Example 31, 6-Methyl-imidazo[2,1-b]thiazole-5-carboxylic acid [(1R,3S,4S)-2-(2-cyclopropyl-5-phenyl-thiazole-4-carbonyl)-2-aza-bicyclo[2.2.1]hept-3-ylmethyl]-amide]: the pIC50 on human orexin-1 receptor (setting [1]) was 6.86; on human orexin-2 receptor (setting [1]), 7.26.
In the case of `Nc1nc(C(=O)N2[C@@H]3CC[C@@H](C3)[C@H]2CNC(=O)c2cccc3c2OCCO3)c(-c2cccc(F)c2)s1` [Example 5, 2,3-Dihydro-benzo[1,4]dioxine-5-carboxylic acid {(1R,3S,4S)-2-[2-amino-5-(3-fluoro-phenyl)-thiazole-4-carbonyl]-2-aza-bicyclo[2.2.1]hept-3-ylmethyl}-amide], the pIC50 on human orexin-1 receptor (setting [3]) was 6.83; at human orexin-2 receptor (setting [3]), 7.54.
`O=C(NC[C@H]1[C@@H]2CC[C@@H](C2)N1C(=O)c1nc(N2CCCC2)sc1-c1ccccc1F)c1cccc2ncsc12` [Example 110, Benzothiazole-7-carboxylic acid {(1S,3R,4R)-2-[5-(2-fluoro-phenyl)-2-pyrrolidin-1-yl-thiazole-4-carbonyl]-2-aza-bicyclo[2.2.1]hept-3-ylmethyl}-amide]: the negative-log IC50 (pIC50) at human orexin-1 receptor (setting [1]) was 7.64; on human orexin-2 receptor (setting [1]), 7.52.
Take `CN(C)c1nc(C(=O)N2[C@@H]3CC[C@@H](C3)[C@H]2CNC(=O)c2nn(C)c3ccccc23)c(-c2ccccc2)s1` [Example 63, 1-Methyl-1H-indazole-3-carboxylic acid [(1R,3S,4S)-2-(2-dimethylamino-5-phenyl-thiazole-4-carbonyl)-2-aza-bicyclo[2.2.1]hept-3-ylmethyl]-amide]: the pIC50 on human orexin-1 receptor (setting [1]) was 6.51; on human orexin-2 receptor (setting [1]), 7.21.
In the case of `Cc1nc(C(=O)N2[C@@H]3CC[C@@H](C3)[C@H]2CNC(=O)c2cccc3cccnc23)c(-c2cccc(Cl)c2)s1` [Example 1, Quinoline-8-carboxylic acid {(1R,3S,4S)-2-[5-(3-chloro-phenyl)-2-methyl-thiazole-4-carbonyl]-2-aza-bicyclo[2.2.1]hept-3-ylmethyl}-amide], the negative-log IC50 (pIC50) was 7.23 at human orexin-1 receptor (setting [3]) and 6.21 at human orexin-2 receptor (setting [3]).
For the compound `CCN(C)c1nc(C(=O)N2[C@H]3CC[C@H](C3)[C@@H]2CNC(=O)c2cccc3ncsc23)c(-c2ccc(F)cc2)s1` [Example 118, Benzothiazole-7-carboxylic acid {(1S,3R,4R)-2-[2-(ethyl-methyl-amino)-5-(4-fluoro-phenyl)-thiazole-4-carbonyl]-2-aza-bicyclo[2.2.1]hept-3-ylmethyl}-amide], the values for the negative logarithm of the IC50 (pIC50) at human orexin-1 receptor (setting [1]) and at human orexin-2 receptor (setting [1]) were 6.93 and 7.49, respectively.
As to `Cc1nc(C(=O)N2[C@@H]3CC[C@@H](C3)[C@H]2CNC(=O)c2cccc3ncsc23)c(-c2cccc(OC(F)(F)F)c2)o1` [Example 104, Benzothiazole-7-carboxylic acid {(1R,3S,4S)-2-[2-methyl-5-(3-trifluoromethoxy-phenyl)-oxazole-4-carbonyl]-2-aza-bicyclo[2.2.1]hept-3-ylmethyl}-amide], the negative-log IC50 (pIC50) at human orexin-1 receptor (setting [1]) was 6.52; at human orexin-2 receptor (setting [1]) it was 7.43.
Regarding `Cc1nc2sccn2c1C(=O)NC[C@@H]1[C@H]2CC[C@H](C2)N1C(=O)c1ncsc1-c1ccc(F)cc1` [Example 35, 6-Methyl-imidazo[2,1-b]thiazole-5-carboxylic acid {(1R,3S,4S)-2-[5-(4-fluoro-phenyl)-thiazole-4-carbonyl]-2-aza-bicyclo[2.2.1]hept-3-ylmethyl}-amide], the results for the pIC50 at human orexin-1 receptor (setting [1]) and at human orexin-2 receptor (setting [1]) were 6.56 and 6.09, respectively.
Regarding `CCn1nc(C)cc1C(=O)NC[C@@H]1[C@H]2CC[C@H](C2)N1C(=O)c1ccccc1-c1ccccc1` [Example 40, 2-Ethyl-5-methyl-2H-pyrazole-3-carboxylic acid [(1R,3S,4S)-2-(biphenyl-2-carbonyl)-2-aza-bicyclo[2.2.1]hept-3-ylmethyl]-amide], the values for the pIC50 at human orexin-1 receptor (setting [3]) and at human orexin-2 receptor (setting [3]) were under 5.00 and 6.36, respectively.
As to `CN(C)c1nc(C(=O)N2[C@@H]3CC[C@@H](C3)[C@H]2CNC(=O)c2nsc3ccccc23)c(-c2cccc(F)c2)s1` [Example 105, Benzo[d]isothiazole-3-carboxylic acid {(1R,3S,4S)-2-[2-dimethylamino-5-(3-fluoro-phenyl)-thiazole-4-carbonyl]-2-aza-bicyclo[2.2.1]hept-3-ylmethyl}-amide], the values for the negative-log IC50 (pIC50) on human orexin-1 receptor (setting [1]) and at human orexin-2 receptor (setting [1]) were 7.19 and 6.38, respectively.
